In US10203331B2, “Single cell drug response measurements via live cell interferometry” (The Regents of the University of California, priority 2011, dated 2019):
“Also recorded” adds a separate entry of the source.

Legend:
Type in all cases: cell-based, human
H929 cells = experiment: Cell cycle analysis, propidium iodide flow cytometry
Description: (§1) H929 cells were seeded in 6-well culture plates at a density of 1×10^6 cells/well. Before plating cells in the LCI's observation chamber, either 1 μL of Tunicamycin (T7765; Sigma-Aldrich) in DMSO, or DMSO alone were added to the media at a concentration of 10 mg/ml, DMSO/media (1:1000 dilution). Mass measurements commenced one hour after the cells were plated in the observation chamber in order to allow the experimental system to stabilize, i.e.; culture acclimation, temperature stabilization, etc. For cell cycle analysis, cells from each time point were collected and incubated with a hypotonic DNA-staining buffer containing propidium iodide and later analyzed by flow cytometry. RNA for each time point was extracted using the Trizol reagent (Invitrogen).

[1] = tested on: H929 multiple myeloma cells; experiment: LCI longitudinal single-cell mass accumulation profiling; design: mass accumulation rate (growth) of treated cells versus DMSO-treated controls: dose or concentration left out as unconfirmed; settings: for mass accumulation rate (growth) of treated cells versus DMSO-treated controls: Tunicamycin, data over five hours
Excerpt: The live cell interferometer has been described in detail previously (1). Briefly, the system is an optical microscope, based on a modified Veeco NT9300 optical profiler, with a 20×0.28NA Michelson interference objective that allows for the observation of not only lateral features with typical optical resolution (1.16 μm for the 20× objective) but also height dimensions of reflective objects below the scale of one nanometer. The Michelson interferometer is composed of a beam splitter, reference mirror and compensating fluid cell to adjust for optical path differences induced by fluid surrounding the specimen. The phase shifting interferometry (PSI) (14) method was used to capture phase images of the cell bodies in situ. During measurement, a piezoelectric translator decreases the light path a small amount causing a phase shift between the test and reference beams. The system records the irradiance of the resulting interference pattern at many different phase shifts and then converts the irradiance to phase wavefront data by integrating the irradiance data using a PSI algorithm. As currently implemented, the autofocus and PSI measurement cycle takes 12 seconds. The PSI measurement itself takes 1-2 seconds, and is limited by the camera frame rate (60 fps). In this experiment, one set of 25 images, containing 400-1,000 cells, was captured every 7 minutes. Each set of 25 images contained hundreds of cells, with data from the first five images presented here, and therefore each run includes ˜80 cells. All cells within each of the selected images were measured.
The software native to the Veeco NT9300 allows automated optical thickness measurements of cells selected manually from the phase image. The optical thickness is converted to mass as described in the text, using the conversion constant, α=1.8×10^−3 m^3 kg^−1, consistent with Ross. (9) The boundary of each cell was automatically selected by an algorithm that partitions objects from the background using a threshold determined from the histogram of pixel heights. (15) Conversion of the raw phase image into optical thickness uses a series of well established ‘phase unwrapping’ routines. […] This error is easily detected as a non-physical discontinuity in optical thickness, and corrected by adding back one wavelength of optical thickness to the affected pixels. […]
H929 human multiple myeloma cells were maintained at 37° C. in 5% CO2 in RPMI 1640 growth media supplemented with 10% defined fetal bovine serum (HyClone) and antibiotics. […] Cell responses to external stimuli were measured for as long as seven hours in this configuration, and observed unperturbed cultures for up to twelve hours, although the upper limit of experiment duration has not been determined. […]

[2] = tested on: XBP1 mRNA splicing (XBP1-s); experiment: RT-PCR for XBP1 spliced and unspliced isoforms in treated H929 cells; settings: treated H929 population, over five hours
Description: as §1
(§2) CDNA was synthesized from 3 μg of total RNA with oligo(dT) primers using the Superscript III first strand cDNA synthesis kit (Invitrogen). RT-PCR for XBP1 spliced and unspliced isoforms were performed using Platinum Taq (Invitrogen) at an annealing temperature of 58° C. for 25 cycles. Quantitative RT-PCR for CHOP (DDIT3) mRNA was performed using the SYBR green real time PCR kit (Diagenode) and an Applied Biosystems (Foster City, Calif., USA) 7700 sequence detector as described (33). Samples were analyzed for 36b4 expression as a normalization control. Primer sequences are available on request.

CHOP (DDIT3) mRNA = experiment: Quantitative RT-PCR for CHOP (DDIT3) mRNA in treated H929 cells; settings: treated H929 population, over five hours
Description: as §1, §2

Tunicamycin
cells in G1/G0 (H929 cells; by the end of five hours of treatment): 50% | G2/M phase population (H929 cells; shift pronounced after three hours of exposure): rapid reduction | time at which suppression of growth of the treated population appears ([1]; H929, treated vs untreated): within two hours | mass accumulation rate (growth) of treated cells versus DMSO-treated controls [1]: grow more slowly than do the controls; also recorded: much lower | mass accumulation rate (growth) of treated cells versus DMSO-treated controls ([1]; listed as TM): slowing mass accumulation | cell shrinkage or apoptosis ([1]; with induction of XBP1 mRNA splicing): not cell shrinkage or apoptosis | XBP1 alternative splicing (spliced form XBP1-s) [2]: alternative splicing | XBP1 alternative splicing (spliced form XBP1-s) ([2]; listed as TM): up-regulation | CHOP transcription factor expression (CHOP (DDIT3) mRNA): up-regulation
